# pIC50: −log10 of the molar value.
# How the values were obtained:
# [1] = system: AGS (G12D); test: Cell proliferation assay (CellTiter-Glo, 72 hours), AGS; format: cell-based; details: 72 h, 384-well, CellTiter-Glo 2.0
# Experimental: (§1) Two thousand KRAS mutant cells per well were seeded in 384-well white plate and then treated with indicated compounds for 72 hours at 37° C. and 5% CO2. Cell proliferation was measured using CellTiter-Glo 2.0 luciferase-based ATP detection assay (Promega, Madison, WI) following the manufacturer's protocol. IC50 values were determined using Prism software (GraphPad Software, San Diego, CA).
# [2] = target: KRAS G12V (Homo sapiens, UniProt P01116, G12V); test: biochemical
# Sequence of KRAS G12V (P01116 1-188 isoform P01116-2 G12V): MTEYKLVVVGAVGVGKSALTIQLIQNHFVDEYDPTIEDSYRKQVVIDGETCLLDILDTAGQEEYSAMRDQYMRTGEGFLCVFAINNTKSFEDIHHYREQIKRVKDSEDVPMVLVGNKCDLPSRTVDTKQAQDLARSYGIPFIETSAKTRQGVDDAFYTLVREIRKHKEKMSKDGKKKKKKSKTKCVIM
# [3] = target: KRAS G12D (Homo sapiens, UniProt P01116, G12D); test: biochemical
# Sequence of KRAS G12D (P01116 1-188 isoform P01116-2 G12D): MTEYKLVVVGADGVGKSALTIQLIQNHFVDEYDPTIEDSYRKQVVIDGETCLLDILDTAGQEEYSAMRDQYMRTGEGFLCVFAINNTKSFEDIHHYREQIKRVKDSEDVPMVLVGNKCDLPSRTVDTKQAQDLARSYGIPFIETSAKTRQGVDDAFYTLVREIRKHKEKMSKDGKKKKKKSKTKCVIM
# [4] = system: SW620 (KRAS G12V); test: Cell proliferation assay (CellTiter-Glo, 72 hours), SW620; format: cell-based; details: Homo sapiens, SW-620, 72 h, 384-well, CellTiter-Glo 2.0
# Experimental: as §1
# [5] = system: GP2D (KRAS G12D); test: Cell proliferation assay (CellTiter-Glo, 72 hours), GP2D; format: cell-based; details: 384-well, CellTiter-Glo 2.0
# Experimental: as §1
pIC50 [1],pIC50 [4],Structure (SMILES),pIC50 [2],pIC50 [3],pIC50 [5],"pIC50 ([5]; GP2d, 72 h)"
7.37,6.71,"C#Cc1c(F)ccc2cc(O)cc(-c3nc4c5c(nc(OC[C@@]67CCCN6C[C@H](F)C7)nc5c3F)N(CC)CCO4)c12 [Example 108, 4-(10-ethyl-4-fluoro-2-{[(2R,7aS)-2-fluorotetrahydro-1H-pyrrolizin-7a(5H)-yl]methoxy}-9,10-dihydro-8H-7-oxa-1,3,6,10-tetraazacyclohepta[1,2,3-de]naphthalen-5-yl)-5-ethynyl-6-fluoronaphthalen-2-ol]",–,–,–,7.86
< 5.52,< 5.52,"CCc1c(F)ccc2cc(O)cc(-c3nc4c5c(nc(OC[C@@]67CCCN6C[C@H](F)C7)nc5c3F)NCCC4)c12 [Example 117, 5-ethyl-6-fluoro-4-(4-fluoro-2-{[(2R,7aS)-2-fluorotetrahydro-1H-pyrrolizin-7a(5H)-yl]methoxy}-7,8,9,10-tetrahydro-1,3,6,10-tetraazacyclohepta[1,2,3-de]naphthalen-5-yl)naphthalen-2-ol]",–,–,–,< 5.52
< 5.52,< 5.52,"C#Cc1c(F)ccc2cc(O)cc(-c3nc4c5c(nc(OC[C@@]67CCCN6C[C@H](F)C7)nc5c3F)N3C[C@@](C)(O)CC[C@H]3CO4)c12 [Example 120, (8aS,11S)-5-(8-ethynyl-7-fluoro-3-hydroxynaphthalen-1-yl)-4-fluoro-2-{[(2R,7aS)-2-fluorotetrahydro-1H-pyrrolizin-7a(5H)-yl]methoxy}-11-methyl-8,8a,9,10,11,12-hexahydro-7-oxa-1,3,6,12a-tetraazabenzo[4,5]cyclohepta[1,2,3-de]naphthalen-11-ol]",–,–,–,< 5.52
6.43,6.82,"CCc1c(F)ccc2cc(O)cc(-c3nc4c5c(nc(OC[C@@]67CCCN6C[C@H](F)C7)nc5c3F)N(C)[C@@H](C)CO4)c12 [Example 123, 5-ethyl-6-fluoro-4-[(9S)-4-fluoro-2-{[(2R,7aS)-2-fluorotetrahydro-1H-pyrrolizin-7a(5H)-yl]methoxy}-9,10-dimethyl-9,10-dihydro-8H-7-oxa-1,3,6,10-tetraazacyclohepta[1,2,3-de]naphthalen-5-yl]naphthalen-2-ol]",–,–,–,7.39
5.48,5.48,"CCc1c(F)ccc2cc(O)cc(-c3nc4c5c(nc(OC[C@@]67CCCN6C[C@H](F)C7)nc5c3F)N[C@@H](CO)CO4)c12 [Example 124, 5-ethyl-6-fluoro-4-[(9S)-4-fluoro-2-{[(2R,7aS)-2-fluorotetrahydro-1H-pyrrolizin-7a(5H)-yl]methoxy}-9-(hydroxymethyl)-9,10-dihydro-8H-7-oxa-1,3,6,10-tetraazacyclohepta[1,2,3-de]naphthalen-5-yl]naphthalen-2-ol]",–,–,–,5.76
7.84,8.20,"C#Cc1c(F)ccc2cc(O)cc(-c3nc4c5c(nc(OC[C@@]67CCCN6C[C@H](F)C7)nc5c3F)N(CC(F)F)[C@@H](C)CO4)c12 [Example 128, 4-[(9S)-10-(2,2-difluoroethyl)-4-fluoro-2-{[(2R,7aS)-2-fluorotetrahydro-1H-pyrrolizin-7a(5H)-yl]methoxy}-9-methyl-9,10-dihydro-8H-7-oxa-1,3,6,10-tetraazacyclohepta[1,2,3-de]naphthalen-5-yl]-5-ethynyl-6-fluoronaphthalen-2-ol]",–,–,–,8.24
< 5.52,< 5.52,"C#Cc1c(F)ccc2cc(O)cc(-c3nc4c5c(nc(OC[C@@]67CCCN6C[C@H](F)C7)nc5c3F)N(C)C3(CCOC3)CO4)c12 (stereo partly drawn) [Example 129, 5-ethynyl-6-fluoro-4-[6-fluoro-3-[[(2R,8S)-2-fluoro-1,2,3,5,6,7-hexahydropyrrolizin-8-yl]methoxy]-13-methyl-spiro[10-oxa-2,4,8,13-tetrazatricyclo[7.4.1.05,14]tetradeca-1,3,5,7,9 (14)-pentaene-12,3′-tetrahydrofuran]-7-yl]naphthalen-2-ol]",–,–,–,< 5.52
6.71,6.88,"C#Cc1c(F)ccc2cc(O)cc(-c3nc4c5c(nc(OC[C@@]67CCCN6C[C@H](F)C7)nc5c3F)N(C[C@@H](C)O)[C@@H](C)CO4)c12 [Example 130, 5-ethynyl-6-fluoro-4-((S)-4-fluoro-2-(((2R,7aS)-2-fluorotetrahydro-1H-pyrrolizin-7a(5H)-yl)methoxy)-10-((R)-2-hydroxypropyl)-9-methyl-9,10-dihydro-8H-7-oxa-1,3,6,10-tetraazacyclohepta[de]naphthalen-5-yl)naphthalen-2-ol]",–,–,–,6.94
7.18,7.37,"CCc1c(F)ccc2cc(O)cc(-c3nc4c5c(nc(OC[C@@]67CCCN6C[C@H](F)C7)nc5c3F)N(CC(F)F)[C@@H](C)CO4)c12 [Example 131, 4-[(9S)-10-(2,2-difluoroethyl)-4-fluoro-2-{[(2R,7aS)-2-fluorotetrahydro-1H-pyrrolizin-7a(5H)-yl]methoxy}-9-methyl-9,10-dihydro-8H-7-oxa-1,3,6,10-tetraazacyclohepta[1,2,3-de]naphthalen-5-yl]-5-ethyl-6-fluoronaphthalen-2-ol]",–,–,–,7.62
< 5.52,5.86,"CCc1c(F)ccc2cc(O)cc(-c3nc4c5c(nc(OC[C@@]67CCCN6C[C@H](F)C7)nc5c3F)N(C)C3(CCOC3)CO4)c12 (stereo partly drawn) [Example 132, 5-ethyl-6-fluoro-4-(4-fluoro-2-{[(2R,7aS)-2-fluorotetrahydro-1H-pyrrolizin-7a(5H)-yl]methoxy}-10-methyl-8H,10H-spiro[7-oxa-1,3,6,10-tetraazacyclohepta[1,2,3-de]naphthalene-9,3′-oxolan]-5-yl)naphthalen-2-ol]",–,–,–,< 5.52
7.30,7.59,"C#Cc1c(F)ccc2cc(O)cc(-c3nc4c5c(nc(OC[C@@]67CCCN6C[C@H](F)C7)nc5c3F)N(CC(F)(F)F)[C@@H](C)CO4)c12 [Example 133, 5-ethynyl-6-fluoro-4-((S)-4-fluoro-2-(((2R,7aS)-2-fluorotetrahydro-1H-pyrrolizin-7a(5H)-yl)methoxy)-9-methyl-10-(2,2,2-trifluoroethyl)-9,10-dihydro-8H-7-oxa-1,3,6,10-tetraazacyclohepta[de]naphthalen-5-yl)naphthalen-2-ol]",–,–,–,7.67

Structure (SMILES),pIC50 [1],pIC50 [4],pIC50 [2],pIC50 [3],pIC50 [5],"pIC50 ([5]; GP2d, 72 h)"
"Fc1c(-c2c(Cl)ccc3[nH]nc(Cl)c23)nc2c3c(nc(OC[C@@]45CCCN4C[C@H](F)C5)nc13)N1CCCC[C@H]1CO2 (atropisomer, axis not shown) [Example 83, (7S)-12-(3,5-dichloro-1H-indazol-4-yl)-13-fluoro-16-[[(2R,8S)-2-fluoro-1,2,3,5,6,6-4hexahydropyrrolizin-8-yl]methoxy]-9-oxa-2,11,15,17-tetrazatetracyclo[8.7.1.02,7.014,18]octadeca-1 (17),10 (18),11,13,15-pentaene]",< 5.52,< 5.52,7.23,7.22,5.97,–
"C#Cc1c(F)ccc2cc(O)cc(-c3nc4c5c(nc(OC[C@@]67CCCN6C[C@H](F)C7)nc5c3F)N(Cc3ccccc3)CCC4)c12 [Example 112, 4-[13-benzyl-6-fluoro-3-[[(2R,8S)-2-fluoro-1,2,3,5,6,7-hexahydropyrrolizin-8-yl]methoxy]-2,4,8,13-tetrazatricyclo [7.4.1.05,14]tetradeca-1,3,5,7,9 (14)-pentaen-7-yl]-5-ethynyl-6-fluoro-naphthalen-2-ol]",< 5.52,–,7.40,6.49,–,< 5.52
CCc1c(F)ccc2cc(O)cc(-c3nc4c5c(nc(OC[C@@]67CCCN6C[C@H](F)C7)nc5c3F)N3CCC[C@](C)(O)[C@@H]3CO4)c12 [Example 114],< 5.52,–,5.92,6.03,–,< 5.52
"CC[C@H]1COc2nc(-c3cc(O)cc4ccc(F)c(F)c34)c(F)c3nc(OC[C@@]45CCCN4C[C@H](F)C5)nc(c23)N1C [Example 115, 4-[(9S)-9-ethyl-4-fluoro-2-{[(2R,7aS)-2-fluorotetrahydro-1H-pyrrolizin-7a(5H)-yl]methoxy}-10-methyl-9,10-dihydro-8H-7-oxa-1,3,6,10-tetraazacyclohepta[1,2,3-de]naphthalen-5-yl]-5,6-difluoronaphthalen-2-ol]",6.45,–,8.62,8.58,–,6.97
"CC[C@H]1COc2nc(-c3cccc4sc(N)c(C#N)c34)c(F)c3nc(OC[C@@]45CCCN4C[C@H](F)C5)nc(c23)N1C [Example 116, 2-amino-4-[(9S)-9-ethyl-4-fluoro-2-{[(2R,7aS)-2-fluorotetrahydro-1H-pyrrolizin-7a(5H)-yl]methoxy}-10-methyl-9,10-dihydro-8H-7-oxa-1,3,6,10-tetraazacyclohepta[1,2,3-de]naphthalen-5-yl]-1-benzothiophene-3-carbonitrile]",< 5.52,–,8.19,7.85,–,6.12
"CCc1c(F)ccc2cc(O)cc(-c3nc4c5c(nc(OC[C@@]67CCCN6C[C@H](F)C7)nc5c3F)N3CCC[C@@](C)(O)[C@H]3CO4)c12 [compound 3, (8aR,9R)-5-(8-ethyl-7-fluoro-3-hydroxynaphthalen-1-yl)-4-fluoro-2-{[(2R,7aS)-2-fluorotetrahydro-1H-pyrrolizin-7a(5H)-yl]methoxy}-9-methyl-8,8a,9,10,11,12-hexahydro-7-oxa-1,3,6,12a-tetraazabenzo[4,5]cyclohepta[1,2,3-de]naphthalen-9-ol]",7.24,–,8.73,8.78,–,7.81
